Reference: patent US20220324865A1 (Bayer Aktiengesellschaft, priority 2018, published 2022)

biological target: T1, human EP3 receptor (Homo sapiens, UniProt P43115); assay: Cellular in vitro assay for determining EP3 receptor activity (human EP3 cell line, sulprostone-stimulated calcium luminescence); assay type: cell-based; details: CHO cells expressing human EP3 and mitochondrial Clytin; antagonist mode, sulprostone at EC50; read-out: EP3 CHO mtCLY ANTAG IC50
T1 construct: expressed in transfected cells; host or cells: CHO K1 (Chinese Hamster Ovary), stably co-transfected with Galpha16 and mitochondrial clytin
T1 sequence (P43115 1-390): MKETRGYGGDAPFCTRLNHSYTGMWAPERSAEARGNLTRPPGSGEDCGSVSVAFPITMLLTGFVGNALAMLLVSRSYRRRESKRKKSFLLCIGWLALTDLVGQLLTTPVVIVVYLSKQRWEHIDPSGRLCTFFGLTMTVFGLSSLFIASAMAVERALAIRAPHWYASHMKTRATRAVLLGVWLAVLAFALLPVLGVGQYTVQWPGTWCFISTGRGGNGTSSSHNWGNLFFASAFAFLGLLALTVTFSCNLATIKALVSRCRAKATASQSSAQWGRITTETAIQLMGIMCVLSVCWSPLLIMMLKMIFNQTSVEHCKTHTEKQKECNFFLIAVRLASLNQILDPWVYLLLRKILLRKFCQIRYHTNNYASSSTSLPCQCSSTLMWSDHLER
Procedure, shortened: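 CHO K1 cells stably expressing human EP3 with Gα16 and mitochondrial Clytin, loaded overnight with coelenterazine. Compounds added 10 min before sulprostone at its EC50; antagonism read immediately as reduced calcium-driven luminescence, quadruplicate points.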

| SMILES | IC50 |
| --- | --- |
| COC[C@@H](C)NC(=O)c1nn2cc(-c3ccc4ccccc4c3)[nH]c(=O)c2c1C(F)(F)F [6-516] | 4.4 nM |
| CN(CCNC(=O)c1nn2cc(-c3ccc4ccccc4c3)[nH]c(=O)c2c1C(F)(F)F)C1CC1 [6-517] | 4.2 nM |
| O=C(NC1CCN(CC(F)F)C1)c1nn2cc(-c3ccc4ccccc4c3)[nH]c(=O)c2c1C(F)(F)F (stereo not shown) [6-518] | 1.7 nM |
| C[C@H](CO)NC(=O)c1nn2cc(-c3ccc4ccccc4c3)[nH]c(=O)c2c1C(F)(F)F [6-525] | 7.8 nM |
| C[C@@H](CO)NC(=O)c1nn2cc(-c3ccc4ccccc4c3)[nH]c(=O)c2c1C(F)(F)F [6-526] | 9.43 nM |
| O=C(NCCN(CC(F)F)C1CC1)c1nn2cc(-c3ccc4ccccc4c3)[nH]c(=O)c2c1C(F)(F)F [6-527] | 3.37 nM |
| CN1CC(NC(=O)c2nn3cc(-c4ccc5c(c4)OCCO5)[nH]c(=O)c3c2C(F)(F)F)(c2ccc(F)cc2)C1 [6-535] | 4.2 nM |
| CC(C)c1c(C(=O)N[C@@H](c2ccc(F)cc2)C(F)(F)CO)nn2cc(-c3ccc(Cl)c(F)c3)[nH]c(=O)c12 [6-536] | 3.8 nM |
| CC(C)c1c(C(=O)NC2(c3ccc(F)cc3)CN(C)C2)nn2cc(-c3ccc(Cl)c(F)c3)[nH]c(=O)c12 [6-538] | 2.77 nM |
| CC(C)c1c(C(=O)N[C@@H](C)C2CC2)nn2cc(-c3ccc(Cl)c(F)c3)[nH]c(=O)c12 [6-539] | 3.3 nM |
| CC(C)c1c(C(=O)N[C@H](C)C2CC2)nn2cc(-c3ccc(Cl)c(F)c3)[nH]c(=O)c12 [6-540] | 0.85 nM |
| O=C(N[C@H](CCO)c1ccccc1)c1cc2c(=O)[nH]c(-c3ccc4ccccc4c3)cn2n1 [6-541] | 0.97 nM |
| O=C(N[C@H](CN1CC(F)(F)C1)c1ccccc1)c1cc2c(=O)[nH]c(-c3ccc4ccccc4c3)cn2n1 [6-544] | 1.65 nM |
| O=C(N[C@H](CN1CC(F)C1)c1ccccc1)c1cc2c(=O)[nH]c(-c3ccc4ccccc4c3)cn2n1 [6-545] | 0.77 nM |
| Cc1cccc2ncc(-c3cn4nc(C(=O)N[C@@H](c5ccc(F)cc5)C(C)(C)O)c(C(F)(F)F)c4c(=O)[nH]3)cc12 [6-546] | 3.13 nM |
| CC[C@@H](C)NC(=O)c1nn2cc(-c3cnc4cccc(C)c4c3)[nH]c(=O)c2c1C(F)(F)F [6-547] | 7.8 nM |
| Cc1cc(-c2cn3nc(C(=O)N[C@@H](C)C4CC4)c(C4CC4(F)F)c3c(=O)[nH]2)ccc1Cl (stereo partly shown) [6-550] | 0.84 nM |
| Cc1cc(-c2cn3nc(C(=O)N[C@@H](c4ccc(F)cc4)C(C)(C)O)c(C4CC4(F)F)c3c(=O)[nH]2)ccc1Cl (stereo partly shown) [6-551] | 1.7 nM |

Second part, the molecule after the results:

| IC50 | SMILES |
| --- | --- |
| 2.55 nM | CC(C)(O)[C@@H](NC(=O)c1nn2cc(-c3ccc(Cl)c(Cl)c3)[nH]c(=O)c2c1C1CC(F)(F)C1)c1ccc(F)cc1 [6-552] |
| 2.8 nM | C[C@H](NC(=O)c1nn2cc(-c3ccc(Cl)c(Cl)c3)[nH]c(=O)c2c1C1CC(F)(F)C1)C1CC1 [6-553] |
| 3.35 nM | CC(C)(O)[C@@H](NC(=O)c1nn2cc(-c3ccc(Cl)c(F)c3)[nH]c(=O)c2c1C1CC(F)(F)C1)c1ccc(F)cc1 [6-555] |
| 2.15 nM | C[C@H](NC(=O)c1nn2cc(-c3ccc(Cl)c(F)c3)[nH]c(=O)c2c1C1CC(F)(F)C1)C1CC1 [6-556] |
| 1.15 nM | Cc1cc(-c2cn3nc(C(=O)N[C@@H](C)C4CC4)c(C4CC(F)(F)C4)c3c(=O)[nH]2)ccc1Cl [6-558] |
| 6.07 nM | Cc1ccc(-c2cn3nc(C(=O)N[C@@H](c4ccc(F)cc4)C(C)(C)O)c(C4CC(F)(F)C4)c3c(=O)[nH]2)cc1Cl [6-559] |
| 1.6 nM | Cc1ccc(-c2cn3nc(C(=O)N[C@@H](C)C4CC4)c(C4CC(F)(F)C4)c3c(=O)[nH]2)cc1Cl [6-560] |
| 1.1 nM | Cc1ccc(-c2cn3nc(C(=O)N[C@@H](C)C4CC4)c(C4CC4(F)F)c3c(=O)[nH]2)cc1Cl (stereo partly shown) [6-561] |
| 2.9 nM | Cc1ccc(-c2cn3nc(C(=O)N[C@@H](c4ccc(F)cc4)C(C)(C)O)c(C4CC4(F)F)c3c(=O)[nH]2)cc1Cl (stereo partly shown) [6-563] |
| 4.05 nM | CC(C)(O)[C@@H](NC(=O)c1nn2cc(-c3ccc(Cl)c(F)c3)[nH]c(=O)c2c1C1CC1(F)F)c1ccc(F)cc1 (stereo partly shown) [6-564] |
